Each structure is given as a SMILES string. Values after ≈ are worked out from the molar mass of the structure shown. Read-outs that look alike come from different tables or passages of the source.

Common to all, as to assay type: cell-based
The subject of assay [1] is Pseudomonas aeruginosa (ATCC 15691). As to the kind of experiment: MIC, agar dilution, Pseudomonas aeruginosa ATCC 15691. As to conditions: read-out: Minimum Inhibitory Concentration (MIC). The procedure:
(§1) The compounds of this invention were tested for antibacterial activity according to the following procedure. Nutrient broth and nutrient agar were prepared according to the conventional procedure. […] was used as a vehicle. The stock solution was prepared at 100 μg/ml of the test material in the vehicle. Two-fold dilutions were made with the vehicle and then the diluted stock solution was added to a petri dish and solidified by chilling. Test organisms were grown in the nutrient broth for 20 hours at 37° C. The hardened surface was inoculated with a loopful of the test organism solution containing 1×10^6 cells per milliliter and incubated for 20 hours at 37° C. At the end of this period, growth of the organism was observed. […] The following Table 1 summarizes the activity of representative compounds as active antibacterial agents, and compares them with the prior art compounds and the reference drug Sulbenicillin.
(In agar dilution, organisms are placed on agar that contains the substance at set levels.)

Assay [2] concerns Proteus morgani (IFO 3848). As to the kind of experiment: MIC, agar dilution, Proteus morgani. Conditions: Morganella morganii, read-out: Minimum Inhibitory Concentration (MIC). The method, then: as §1
The subject of another assay is E. coli (NIHJ). As to the kind of experiment: MIC, agar dilution, E. coli. As to conditions: Escherichia coli, read-out: Minimum Inhibitory Concentration (MIC). The procedure: as §1
The subject of assay [3] is Proteus vulgaris (IFO 3045). As to the kind of experiment: MIC, agar dilution, Proteus vulgaris. As to conditions: read-out: Minimum Inhibitory Concentration (MIC). The procedure:
as §1

The test system of assay [4] is Proteus mirabilis (IFO 3849). As to the kind of experiment: MIC, agar dilution, Proteus mirabilis. Conditions: read-out: Minimum Inhibitory Concentration (MIC). The procedure: as §1
Assay [5] has as its system Klebsiella pneumoniae (ATCC 25955). As to the kind of experiment: MIC, agar dilution, Klebsiella pneumoniae. As to conditions: read-out: Minimum Inhibitory Concentration (MIC). The procedure:
as §1

Assay [6] has as its system Pseudomonas aeruginosa M-16. Kind of assay: MIC, agar dilution, Pseudomonas aeruginosa M-16. As to conditions: M16, 20 h, read-out: Minimum Inhibitory Concentration (MIC). The procedure: as §1
^*3 streptomycin, chloramphenicol and mercury resistant strain derive

Assay [7] relates to Pseudomonas aeruginosa M-12. Kind of assay: MIC, agar dilution, Pseudomonas aeruginosa M-12. As to conditions: ATCC15692, 20 h, read-out: Minimum Inhibitory Concentration (MIC). The method, then:
as §1
^*2 chloramphenicol resistant strain derived from Pseudomonas

Another assay deals with Staph. aureus (FDA 209P). As to the kind of experiment: MIC, agar dilution, Staph. aureus. Conditions: Staphylococcus aureus, FDA209P, read-out: Minimum Inhibitory Concentration (MIC). The procedure: as §1
Assay [8] concerns Pseudomonas aeruginosa (ATCC 15692). Kind of assay: MIC, agar dilution, Pseudomonas aeruginosa ATCC 15692. Conditions: read-out: Minimum Inhibitory Concentration (MIC). The method, then:
as §1

In assay [9] the test system is Pseudomonas aeruginosa M-11. As to the kind of experiment: MIC, agar dilution, Pseudomonas aeruginosa M-11. Conditions: 20 h, read-out: Minimum Inhibitory Concentration (MIC). The method, then:
as §1
^*1 streptomycin resistant strain derived from Pseudomonas aeruginosa

Setting [10] is: Proteus vulgaris, IFO3045, 20 h.
Setting [11] is: Proteus mirabilis, IFO3849, 20 h.
Where [12] appears, read: Klebsiella pneumoniae, ATCC25955, 20 h.

Regarding `CC1(C)S[C@@H]2[C@H](NC(=O)[C@H](NC(=O)[C@H]3CCCN3)c3ccccc3)C(=O)N2[C@H]1C(=O)O` [Compound 1], the MIC in assay [1] (ATCC15691, 20 h) came out at 12.5 µg/mL (≈ 28 µM); in assay [2] (IFO3848, 20 h), 3.1 µg/mL (≈ 6.94 µM); with E. coli (NIHJ) (20 h), 6.2 µg/mL (≈ 13.9 µM); in assay [3] (setting [10]), 1.5 µg/mL (≈ 3.36 µM); in assay [4] (setting [11]), 1.5 µg/mL (≈ 3.36 µM); in assay [5] (setting [12]), 50 µg/mL (≈ 112 µM). The MIC in assay [6] came to 3.1 µg/mL (≈ 6.94 µM); in [7] it was 3.1 µg/mL (≈ 6.94 µM); with Staph. aureus (FDA 209P) (20 h) it was 0.45 µg/mL (≈ 1.01 µM).
Consider `CC1(C)S[C@@H]2[C@H](NC(=O)[C@H](NC(=O)[C@H]3CCCN3)c3ccc(O)cc3)C(=O)N2[C@H]1C(=O)O` [Compound 3, 6-[D-2-(D-prolylamino)-2-(4-hydroxyphenyl)acetamido]penicillanic acid monohydrate], for which the MIC in assay [2] (IFO3848, 20 h) was found to be 3.1 µg/mL; in [8] (ATCC15692, 20 h) it was 6.2 µg/mL; in the assay on E. coli (NIHJ) (20 h), 6.2 µg/mL; in assay [3] (setting [10]) it was 6.2 µg/mL; in assay [4] (setting [11]), 2.2 µg/mL; with Staph. aureus (FDA 209P) (20 h), 0.9 µg/mL.
`CC1(C)S[C@@H]2[C@H](NC(=O)[C@H](NC(=O)[C@@H]3CCCN3)c3ccc(O)cc3)C(=O)N2[C@H]1C(=O)O` [Compound 4]: the MIC in assay [2] (IFO3848, 20 h) was found to be 9 µg/mL (≈ 19.5 µM); in assay [8] (ATCC15692, P. aeruginosa ATCC 15692, nutrient agar, 20 hours at 37° C.), 50 µg/mL (≈ 108 µM); in the assay on E. coli (NIHJ) (20 h) it was 25 µg/mL (≈ 54.1 µM); in assay [3] (setting [10]) it was 12.5 µg/mL (≈ 27 µM); in assay [4] (setting [11]), 9 µg/mL (≈ 19.5 µM); with Staph. aureus (FDA 209P) (20 h), 1.25 µg/mL (≈ 2.7 µM).
Regarding `CC1(C)S[C@@H]2[C@H](NC(=O)[C@H](NC(=O)[C@H]3Cc4ccccc4CN3)c3ccccc3)C(=O)N2[C@H]1C(=O)O` [Compound 15], the MIC in assay [9] was 25 µg/mL (≈ 49.2 µM); in assay [1] (ATCC15691, 20 h), 50 µg/mL (≈ 98.3 µM); in assay [2] (IFO3848, 20 h), 25 µg/mL (≈ 49.2 µM); in the assay on E. coli (NIHJ) (20 h) it was 25 µg/mL (≈ 49.2 µM); in assay [3] (setting [10]), 25 µg/mL (≈ 49.2 µM); in [4] (setting [11]), 25 µg/mL (≈ 49.2 µM). Besides, the MIC in assay [5] (setting [12]) is 25 µg/mL (≈ 49.2 µM); in assay [6], 25 µg/mL (≈ 49.2 µM); in [7], 25 µg/mL (≈ 49.2 µM); with Staph. aureus (FDA 209P) (20 h) it was 0.3 µg/mL (≈ 0.59 µM).
For the molecule `CC1(C)S[C@@H]2[C@H](NC(=O)C(c3ccccc3)S(=O)(=O)O)C(=O)N2[C@H]1C(=O)O` (some centres unmarked) [sulpenicillin, reference compound], the MIC in assay [9] was 25 µg/mL (≈ 60.3 µM); in [1] (ATCC15691, P. aeruginosa ATCC 15691, nutrient agar, 20 hours at 37° C.), 50 µg/mL (≈ 121 µM); in assay [2] (IFO3848, Proteus morgani IFO 3848, nutrient agar, 20 hours at 37° C.) it was < 3.1 µg/mL; in the assay with E. coli (NIHJ) (E. coli NIHJ, nutrient agar, 20 hours at 37° C.), 1.25 µg/mL (≈ 3.02 µM); in assay [3] (IFO3045, Proteus vulgaris IFO 3045, nutrient agar, 20 hours at 37° C.), < 3.1 µg/mL; in assay [4] (IFO3849, Proteus mirabilis IFO 3849, nutrient agar, 20 hours at 37° C.) it was < 3.1 µg/mL. The MIC in assay [5] (ATCC25955, Klebsiella pneumoniae ATCC 25955, nutrient agar, 20 hours at 37° C.) is > 100 µg/mL; in [6] it was 25 µg/mL (≈ 60.3 µM); in [7] it was 25 µg/mL (≈ 60.3 µM); in the assay on Staph. aureus (FDA 209P) (Staph. aureus FDA 209P, nutrient agar, 20 hours at 37° C.) it was 3.25 µg/mL (≈ 7.84 µM).

The values above are taken from US4220587A, “Amino acid derivatives of 6-(2-amino-2-arylacetamido)penicillanic acids” (Mitsubishi Chemical Industries, Limited, priority 1975, dated 1980).
